Data: ChEMBL document CHEMBL4002627, “Quinolidene based monocarbonyl curcumin analogues as promising antimycobacterial agents: Synthesis and molecular docking study” (Bioorg Med Chem Lett, 2017)
Converted amounts (≈) assume the structure as drawn.

Columns and labels:
Assay type in all cases: functional
[1] = tested on: Mycobacterium tuberculosis; assay: Antimycobacterial activity against dormant state of Mycobacterium bovis BCG assessed as growth inhibition at 30 ug/ml after 12 days by nitrate reductase assay relative to control; conditions: variant bovis BCG, 288 h, read-out: GI
[2] = tested on: Mycobacterium tuberculosis; assay: Antimycobacterial activity against dormant state of Mycobacterium bovis BCG assessed as growth inhibition at 3 ug/ml after 12 days by nitrate reductase assay relative to control; conditions: variant bovis BCG, 288 h, read-out: GI
[3] = tested on: Mycobacterium tuberculosis; assay: Antimycobacterial activity against dormant state of Mycobacterium bovis BCG assessed as growth inhibition at 10 ug/ml after 12 days by nitrate reductase assay relative to control; conditions: variant bovis BCG, 288 h, read-out: GI
[4] = tested on: Mycobacterium tuberculosis; assay: Antimycobacterial activity against dormant state of Mycobacterium bovis BCG by two fold dilution method; conditions: variant bovis BCG

O=C1/C(=C/c2cc3ccccc3nc2Cl)CNC/C1=C\c1cc2ccccc2nc1Cl
inhibition of growth at 30 µg/mL [1]: 79.7% | inhibition of growth at 3 µg/mL [2]: 38.3% | inhibition of growth at 10 µg/mL [3]: 50.6% | MIC50 [4]: 9.6 µg/mL (≈ 21.5 µM) | MIC90 [4]: > 30 µg/mL

COc1ccc2cc(/C=C3\CNC/C(=C\c4cc5ccc(OC)cc5nc4Cl)C3=O)c(Cl)nc2c1
inhibition of growth at 30 µg/mL [1]: 96.8% | inhibition of growth at 3 µg/mL [2]: 94.6% | inhibition of growth at 10 µg/mL [3]: 98.3% | MIC50 [4]: 1.4 µg/mL (≈ 2.76 µM) | MIC90 [4]: 2.7 µg/mL (≈ 5.33 µM)

CN1C/C(=C\c2cc3cc(Cl)ccc3nc2Cl)C(=O)/C(=C/c2cc3cc(Cl)ccc3nc2Cl)C1
inhibition of growth at 30 µg/mL [1]: 96.2% | inhibition of growth at 3 µg/mL [2]: 49% | inhibition of growth at 10 µg/mL [3]: 82.1% | MIC50 [4]: 3.3 µg/mL (≈ 6.24 µM) | MIC90 [4]: 21.5 µg/mL (≈ 40.6 µM)

Cc1ccc2cc(/C=C3\CNC/C(=C\c4cc5ccc(C)cc5nc4Cl)C3=O)c(Cl)nc2c1
inhibition of growth at 30 µg/mL [1]: 89.8% | inhibition of growth at 3 µg/mL [2]: 33.8% | inhibition of growth at 10 µg/mL [3]: 43.4% | MIC50 [4]: 12.9 µg/mL (≈ 27.2 µM) | MIC90 [4]: > 30 µg/mL

O=C1/C(=C/c2cc3cc(Cl)ccc3nc2Cl)CNC/C1=C\c1cc2cc(Cl)ccc2nc1Cl
inhibition of growth at 30 µg/mL [1]: 77.6% | inhibition of growth at 3 µg/mL [2]: 37.5% | inhibition of growth at 10 µg/mL [3]: 24.6% | MIC50 [4]: 19.7 µg/mL (≈ 38.2 µM) | MIC90 [4]: > 30 µg/mL

Cc1cccc2cc(/C=C3\CN(C)C/C(=C\c4cc5cccc(C)c5nc4Cl)C3=O)c(Cl)nc12
inhibition of growth at 30 µg/mL [1]: 62.4% | inhibition of growth at 3 µg/mL [2]: 19.1% | inhibition of growth at 10 µg/mL [3]: 35.9% | MIC50 [4]: 20.8 µg/mL (≈ 42.6 µM) | MIC90 [4]: > 30 µg/mL

COc1ccc2cc(/C=C3\CN(C)C/C(=C\c4cc5ccc(OC)cc5nc4Cl)C3=O)c(Cl)nc2c1
inhibition of growth at 30 µg/mL [1]: 92.4% | inhibition of growth at 3 µg/mL [2]: 22.3% | inhibition of growth at 10 µg/mL [3]: 95.6% | MIC50 [4]: 5.8 µg/mL (≈ 11.1 µM) | MIC90 [4]: 9.4 µg/mL (≈ 18.1 µM)

Cc1ccc2nc(Cl)c(/C=C3\CN(C)C/C(=C\c4cc5cc(C)ccc5nc4Cl)C3=O)cc2c1
inhibition of growth at 30 µg/mL [1]: 20.2% | inhibition of growth at 3 µg/mL [2]: -5.7% | inhibition of growth at 10 µg/mL [3]: 1% | MIC50 [4]: > 30 µg/mL | MIC90 [4]: > 30 µg/mL

Cc1cccc2cc(/C=C3\CNC/C(=C\c4cc5cccc(C)c5nc4Cl)C3=O)c(Cl)nc12
inhibition of growth at 30 µg/mL [1]: 77.1% | inhibition of growth at 3 µg/mL [2]: 52.1% | inhibition of growth at 10 µg/mL [3]: 66.7% | MIC50 [4]: 2.5 µg/mL (≈ 5.27 µM) | MIC90 [4]: > 30 µg/mL

CN1C/C(=C\c2cc3cc(F)ccc3nc2Cl)C(=O)/C(=C/c2cc3cc(F)ccc3nc2Cl)C1
inhibition of growth at 30 µg/mL [1]: 63.8% | inhibition of growth at 3 µg/mL [2]: 17.6% | inhibition of growth at 10 µg/mL [3]: 1% | MIC50 [4]: 25.6 µg/mL (≈ 51.6 µM) | MIC90 [4]: > 30 µg/mL

COc1ccc2nc(Cl)c(/C=C3\CNC/C(=C\c4cc5cc(OC)ccc5nc4Cl)C3=O)cc2c1
inhibition of growth at 30 µg/mL [1]: 97.2% | inhibition of growth at 3 µg/mL [2]: 28% | inhibition of growth at 10 µg/mL [3]: 48.4% | MIC50 [4]: 11 µg/mL (≈ 21.7 µM) | MIC90 [4]: 27.2 µg/mL (≈ 53.7 µM)

Cc1ccc2nc(Cl)c(/C=C3\CNC/C(=C\c4cc5cc(C)ccc5nc4Cl)C3=O)cc2c1
inhibition of growth at 30 µg/mL [1]: 45.9% | inhibition of growth at 3 µg/mL [2]: 35.3% | inhibition of growth at 10 µg/mL [3]: 38.5% | MIC50 [4]: > 30 µg/mL | MIC90 [4]: > 30 µg/mL

CN1C/C(=C\c2cc3ccccc3nc2Cl)C(=O)/C(=C/c2cc3ccccc3nc2Cl)C1
inhibition of growth at 30 µg/mL [1]: 97.5% | inhibition of growth at 3 µg/mL [2]: 31.7% | inhibition of growth at 10 µg/mL [3]: 61.7% | MIC50 [4]: 6 µg/mL (≈ 13 µM) | MIC90 [4]: 7.3 µg/mL (≈ 15.9 µM)

O=C1/C(=C/c2cc3cc(F)ccc3nc2Cl)CNC/C1=C\c1cc2cc(F)ccc2nc1Cl
inhibition of growth at 30 µg/mL [1]: 96.1% | inhibition of growth at 3 µg/mL [2]: 61.9% | inhibition of growth at 10 µg/mL [3]: 93.4% | MIC50 [4]: 2.1 µg/mL (≈ 4.35 µM) | MIC90 [4]: 9.2 µg/mL (≈ 19.1 µM)

Cc1ccc2cc(/C=C3\CN(C)C/C(=C\c4cc5ccc(C)cc5nc4Cl)C3=O)c(Cl)nc2c1
inhibition of growth at 30 µg/mL [1]: 90.4% | inhibition of growth at 3 µg/mL [2]: 23.2% | inhibition of growth at 10 µg/mL [3]: 89.4% | MIC50 [4]: 5.8 µg/mL (≈ 11.9 µM) | MIC90 [4]: 15.4 µg/mL (≈ 31.5 µM)

COc1ccc2nc(Cl)c(/C=C3\CN(C)C/C(=C\c4cc5cc(OC)ccc5nc4Cl)C3=O)cc2c1
inhibition of growth at 30 µg/mL [1]: 31.9% | inhibition of growth at 3 µg/mL [2]: 22.9% | inhibition of growth at 10 µg/mL [3]: 13.3% | MIC50 [4]: > 30 µg/mL | MIC90 [4]: > 30 µg/mL

CO[C@H]1/C=C/O[C@@]2(C)Oc3c(C)c(O)c4c(O)c(c(/C=N/N5CCN(C)CC5)c(O)c4c3C2=O)NC(=O)/C(C)=C\C=C\[C@H](C)[C@H](O)[C@@H](C)[C@@H](O)[C@@H](C)[C@H](OC(C)=O)[C@@H]1C [RIFAMPIN]
MIC50 [4]: 0.0043 µg/mL (≈ 0.00523 µM) | MIC90 [4]: 0.0173 µg/mL (≈ 0.021 µM)
